Biological target: T1, Glucocorticoid receptor (Homo sapiens, UniProt P04150)
T1 sequence (P04150 whole entry): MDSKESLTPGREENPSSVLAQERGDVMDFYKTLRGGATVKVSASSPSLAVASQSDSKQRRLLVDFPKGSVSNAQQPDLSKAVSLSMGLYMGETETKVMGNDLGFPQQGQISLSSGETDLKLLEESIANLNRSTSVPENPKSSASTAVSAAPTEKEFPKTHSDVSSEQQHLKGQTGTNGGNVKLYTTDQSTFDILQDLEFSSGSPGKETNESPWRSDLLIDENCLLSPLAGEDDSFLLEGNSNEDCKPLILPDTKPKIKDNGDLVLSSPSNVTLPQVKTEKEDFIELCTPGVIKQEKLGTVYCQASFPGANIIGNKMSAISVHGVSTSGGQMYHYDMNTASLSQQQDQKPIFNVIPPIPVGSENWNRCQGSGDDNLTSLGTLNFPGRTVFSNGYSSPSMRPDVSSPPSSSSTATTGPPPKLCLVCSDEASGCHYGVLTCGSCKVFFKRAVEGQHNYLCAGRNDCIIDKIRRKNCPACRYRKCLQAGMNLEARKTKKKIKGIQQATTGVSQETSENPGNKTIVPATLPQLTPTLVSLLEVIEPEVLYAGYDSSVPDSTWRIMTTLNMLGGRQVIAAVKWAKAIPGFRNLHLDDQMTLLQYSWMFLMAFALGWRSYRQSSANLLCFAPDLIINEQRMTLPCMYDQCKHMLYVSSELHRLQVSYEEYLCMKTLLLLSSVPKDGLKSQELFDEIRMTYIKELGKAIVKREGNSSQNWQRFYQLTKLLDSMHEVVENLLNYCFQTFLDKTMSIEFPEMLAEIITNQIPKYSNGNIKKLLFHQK
Test: Binding Activity of Compound of the Present Invention to Glucocorticoid Receptor GR
Procedure: The binding activity of the compound to GR was determined using the Polarscreen Glucocorticoid Receptor Assay Kit, Red (brand: Thermo, Cat. No: A15898). […] The highest concentration was 100 μM, 8 concentrations in total.

C[C@]12C=CC(=O)C=C1CC[C@@H]1[C@@H]2[C@@H](O)C[C@@]2(C)[C@H]1C[C@H]1O[C@@H](c3ccc(Cc4ccc5cc[nH]c5c4)cc3)O[C@]12C(=O)CO [US20240307415, Compound 003]
EC50: 121 nM
